Assay results taken from patent publication US8952024B2, “Herbicidal pyrimidone derivatives” (E I du Pont de Nemours and Company, priority 2009, dated 2015).

Legend:
Assay type in all cases: in vivo
[1] = test system: giant foxtail (Setaria faberii); test: Test A pre-/postemergence plant response
How it was run: (§1)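 Injury was scored visually after roughly ten days against untreated controls, 0 = no effect, 100 = complete control. Test chemicals in a surfactant-containing non-phytotoxic solvent were sprayed either onto soil preemergence or onto one- to two-leaf, 2–10 cm plants postemergence.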

[2] = test system: large crabgrass (Digitaria sanguinalis); test: Test A pre-/postemergence plant response
How it was run: as §1

[3] = test system: wheat (Triticum aestivum); test: Test A pre-/postemergence plant response
How it was run: as §1

corn (Zea mays) = test: Test A pre-/postemergence plant response
How it was run: as §1

[4] = test system: barnyardgrass (Echinochloa crus-galli); test: Test A pre-/postemergence plant response
How it was run: as §1

[5] = test system: velvetleaf (Abutilon theophrasti); test: Test A pre-/postemergence plant response
How it was run: as §1

[6] = test system: morningglory (Ipomoea spp.); test: Test A pre-/postemergence plant response
How it was run: as §1

[7] = test system: pigweed (Amaranthus retroflexus); test: Test A pre-/postemergence plant response
How it was run: as §1

[8] = test system: ducksalad (Heteranthera limosa); test: Test B flooded paddy test; conditions: for Plant response rating, Flood, Ducksalad: 250 g ai/ha, flooded paddy test, visual rating on 0 to 100 scale (0 no effect, 100 complete control) after 13 to 15 days; for Plant response rating, Ducksalad: Flood (flooded paddy test), 13 to 15 days
How it was run: (§2)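 Rice, umbrella sedge, ducksalad and barnyardgrass were grown to the 2-leaf stage, flooded to 3 cm, and compound was applied directly to the paddy water, with that depth kept throughout. After 13 to 15 days in the greenhouse, plants were visually rated against controls on a 0 (no effect) to 100 (complete control) scale.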

[9] = test system: umbrella sedge (Cyperus difformis); test: Test B flooded paddy test; conditions: for Plant response rating, Flood, Sedge, Umbrella: 250 g ai/ha, flooded paddy test, visual rating on 0 to 100 scale (0 no effect, 100 complete control) after 13 to 15 days; for Plant response rating, Sedge, Umbrella: Flood (flooded paddy test), 13 to 15 days
How it was run: as §2

rice (Oryza sativa) = test: Test B flooded paddy test; conditions: for Plant response rating, Flood, Rice: 250 g ai/ha, flooded paddy test, visual rating on 0 to 100 scale (0 no effect, 100 complete control) after 13 to 15 days; for Plant response rating, Rice: Flood (flooded paddy test), 13 to 15 days
How it was run: as §2

[10] = test system: barnyardgrass (Echinochloa crus-galli); test: Test B flooded paddy test; conditions: for Plant response rating, Flood, Barnyardgrass: 250 g ai/ha, flooded paddy test, visual rating on 0 to 100 scale (0 no effect, 100 complete control) after 13 to 15 days; for Plant response rating, Barnyardgrass: Flood (flooded paddy test), 13 to 15 days
How it was run: as §2

[11] = Postemergence, 125 g ai/ha, 0 to 100 scale where 0 is no effect and 100 is complete control
[12] = Postemergence, 500 g ai/ha, 0 to 100 scale, 0 = no effect, 100 = complete control, approx. ten days
[13] = Preemergence, 125 g ai/ha, 0 to 100 scale, 0 = no effect, 100 = complete control
[14] = Preemergence, 500 g ai/ha, visual injury, 0 to 100 scale (0 no effect, 100 complete control), approx. ten days
[15] = 62 g ai/ha, scale of 0 to 100 where 0 is no effect and 100 is complete control
[16] = 125 g ai/ha, scale 0 to 100, 0 is no effect, 100 is complete control
[17] = Flood, 31 g ai/ha, scale 0 to 100 (0 no effect, 100 complete control)

## CCCn1c(-c2ccc(F)cc2)ncc(C(=O)C2=C(O)CCCC2=O)c1=O [Compound 102]
[1]; [11]
  Plant response rating, Foxtail, Giant: 80
[1]; [12]
  Plant response rating, Foxtail, Giant: 90
[1]; [13]
  Plant response rating, Foxtail, Giant: 80
[1]; [14]
  Plant response rating, Foxtail, Giant: 100
[2]; [11]
  Plant response rating, Crabgrass, Large: 90
[2]; [12]
  Plant response rating, Crabgrass, Large: 100
[2]; [13]
  Plant response rating, Crabgrass, Large: 80
[2]; [14]
  Plant response rating, Crabgrass, Large: 100
[3]; [11]
  Plant response rating, Wheat: 0
[3]; [12]
  Plant response rating, Wheat: 10
[3]; [13]
  Plant response rating, Wheat: 0
[3]; [14]
  Plant response rating, Wheat: 0
Corn (Zea mays); [11]
  Plant response rating, Corn: 0
Corn (Zea mays); [12]
  Plant response rating, Corn: 20
Corn (Zea mays); [13]
  Plant response rating, Corn: 0
Corn (Zea mays); [14]
  Plant response rating, Corn: 0
[4]; [11]
  Plant response rating, Barnyardgrass: 80
[4]; [12]
  Plant response rating, Barnyardgrass: 90
[4]; [13]
  Plant response rating, Barnyardgrass: 40
[4]; [14]
  Plant response rating, Barnyardgrass: 90
[5]; [11]
  Plant response rating, Velvetleaf: 100
[5]; [12]
  Plant response rating, Velvetleaf: 100
[5]; [13]
  Plant response rating, Velvetleaf: 80
[5]; [14]
  Plant response rating, Velvetleaf: 100
[6]; [11]
  Plant response rating, Morningglory: 100
[6]; [12]
  Plant response rating, Morningglory: 100
[6]; [13]
  Plant response rating, Morningglory: 80
[6]; [14]
  Plant response rating, Morningglory: 80
[7]; [11]
  Plant response rating, Pigweed: 100
[7]; [12]
  Plant response rating, Pigweed: 100
[7]; [13]
  Plant response rating, Pigweed: 60
[7]; [14]
  Plant response rating, Pigweed: 100
[8]
  Plant response rating, Flood, Ducksalad: 85
[8]; [15]
  Plant response rating, Ducksalad: 40
[8]; [16]
  Plant response rating, Ducksalad: 80
[8]; [17]
  Ducksalad plant response rating: 30
[9]
  Plant response rating, Flood, Sedge, Umbrella: 75
[9]; [15]
  Plant response rating, Sedge, Umbrella: 40
[9]; [16]
  Plant response rating, Sedge, Umbrella: 65
[9]; [17]
  Sedge, Umbrella plant response rating: 30
Rice (Oryza sativa)
  Plant response rating, Flood, Rice: 35
Rice (Oryza sativa); [15]
  Plant response rating, Rice: 15
Rice (Oryza sativa); [16]
  Plant response rating, Rice: 20
Rice (Oryza sativa); [17]
  Rice plant response rating: 10
[10]
  Plant response rating, Flood, Barnyardgrass: 70
[10]; [15]
  Plant response rating, Barnyardgrass: 60
[10]; [16]
  Plant response rating, Barnyardgrass: 60
[10]; [17]
  Barnyardgrass plant response rating: 15

## COCC(C)n1c(-c2ccccc2)ncc(C(=O)C2=C(O)CCCC2=O)c1=O (stereo not drawn) [Compound 107]
[1]; [11]
  Plant response rating, Foxtail, Giant: 70
[1]; [12]
  Plant response rating, Foxtail, Giant: 90
[1]; [13]
  Plant response rating, Foxtail, Giant: 60
[1]; [14]
  Plant response rating, Foxtail, Giant: 90
[2]; [11]
  Plant response rating, Crabgrass, Large: 80
[2]; [12]
  Plant response rating, Crabgrass, Large: 90
[2]; [13]
  Plant response rating, Crabgrass, Large: 90
[2]; [14]
  Plant response rating, Crabgrass, Large: 100
[3]; [11]
  Plant response rating, Wheat: 0
[3]; [12]
  Plant response rating, Wheat: 10
[3]; [13]
  Plant response rating, Wheat: 0
[3]; [14]
  Plant response rating, Wheat: 0
Corn (Zea mays); [11]
  Plant response rating, Corn: 0
Corn (Zea mays); [12]
  Plant response rating, Corn: 50
Corn (Zea mays); [13]
  Plant response rating, Corn: 20
[4]; [11]
  Plant response rating, Barnyardgrass: 90
[4]; [12]
  Plant response rating, Barnyardgrass: 90
[4]; [13]
  Plant response rating, Barnyardgrass: 40
[4]; [14]
  Plant response rating, Barnyardgrass: 90
[5]; [11]
  Plant response rating, Velvetleaf: 100
[5]; [12]
  Plant response rating, Velvetleaf: 100
[5]; [13]
  Plant response rating, Velvetleaf: 100
[5]; [14]
  Plant response rating, Velvetleaf: 100
[6]; [11]
  Plant response rating, Morningglory: 100
[6]; [12]
  Plant response rating, Morningglory: 100
[6]; [13]
  Plant response rating, Morningglory: 70
[6]; [14]
  Plant response rating, Morningglory: 100
[7]; [11]
  Plant response rating, Pigweed: 100
[7]; [12]
  Plant response rating, Pigweed: 100
[7]; [13]
  Plant response rating, Pigweed: 100
[7]; [14]
  Plant response rating, Pigweed: 100
[8]
  Plant response rating, Flood, Ducksalad: 40
[8]; [15]
  Plant response rating, Ducksalad: 0
[9]
  Plant response rating, Flood, Sedge, Umbrella: 85
[9]; [15]
  Plant response rating, Sedge, Umbrella: 60
Rice (Oryza sativa)
  Plant response rating, Flood, Rice: 45
Rice (Oryza sativa); [15]
  Plant response rating, Rice: 20
[10]
  Plant response rating, Flood, Barnyardgrass: 60
[10]; [15]
  Plant response rating, Barnyardgrass: 40
